Reference: patent US7276339B2 (H. Lundbeck A/S, priority 1998, dated 2007)
Entries after “also recorded” stand apart in the source; their conditions may differ. Non-standard residues stand in square brackets, D forms with d. Residues, ends and D or L forms follow the SMILES beside them. NMeF = CN[C@@H](Cc1ccccc1)C(=O)O

Assays:
[1] = target: rat spinal cord membrane receptor; experiment: [125I]D-Tyr-NPFF radioligand binding, rat spinal cord membranes; conditions: competition of [125I]D-Tyr-NPFF binding; * = differs from NPFF1
Source text: The binding profile of rat NPFF1 was compared to that of rat spinal cord membranes. […] (See * Table 2).

NPFF receptors = conditions: cited from earlier work; for inhibition of [125I](1DMe)Y8Fa binding: 10 μM
NPFF2 (NPFF-like) = target: T1, NPFF2 (NPFF-like) (Homo sapiens, UniProt Q9Y5X5); experiment: Voltage-clamp electrophysiology, Xenopus oocytes injected with NPFF-like (NPFF2) and chimeric Gαq/z RNA; assay type: cell-based; conditions: 1 μM, holding potential −80 mV
T1 construct: linearized plasmids or PCR products containing the complete coding region of the genes; expressed in transfected cells; host or cells: Xenopus laevis oocytes injected with mRNA from ligation PCR products or linearized BO89
T1 sequence (Q9Y5X5 103-522): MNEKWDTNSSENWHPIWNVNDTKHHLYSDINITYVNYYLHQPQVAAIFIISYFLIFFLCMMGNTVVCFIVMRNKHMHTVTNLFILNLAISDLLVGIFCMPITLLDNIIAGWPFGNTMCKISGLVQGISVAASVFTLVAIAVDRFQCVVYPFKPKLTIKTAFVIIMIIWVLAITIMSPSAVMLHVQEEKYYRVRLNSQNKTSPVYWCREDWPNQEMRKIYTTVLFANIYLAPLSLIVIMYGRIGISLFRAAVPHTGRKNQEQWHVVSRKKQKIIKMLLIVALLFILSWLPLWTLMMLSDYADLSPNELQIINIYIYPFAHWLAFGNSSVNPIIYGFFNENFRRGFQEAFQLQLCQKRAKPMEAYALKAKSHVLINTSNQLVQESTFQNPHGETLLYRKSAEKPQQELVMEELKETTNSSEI
Protocol: For expression of NPFF2, mRNA transcripts were generated as described for NPFF1, using PCR products from ligation reactions or linearized DNA from BO89 as DNA templates. Oocytes were injected with 5-50 ng NPFF2 mRNA and incubated as previously described.
Oocytes were harvested from Xenopus laevis and injected with mRNA transcripts as previously described (Quick and Lester, 1994; Smith et al., 1997). […] Three to eight hours prior to recording, oocytes were injected with 500 pg Gαq/z mRNA in order to observe coupling to Ca^++ activated Cl^− currents. Dual electrode voltage clamp (Axon Instruments Inc.) was performed using 3 M KCl-filled glass microelectrodes having resistances of 1-2 Mohm. Unless otherwise specified, oocytes were voltage clamped at a holding potential of −80 mV. During recordings, oocytes were bathed in continuously flowing (1-3 ml/min) medium containing 96 mM NaCl, 2 mM KCl, 1.8 mM CaCl2, 1 mM MgCl2, and 5 mM HEPES, pH 7.5 (ND96). Drugs were applied either by local perfusion from a […] glass capillary tube fixed at a distance of 0.5 mm from the oocyte, or by switching from a series of gravity fed perfusion lines.
Heterologous expression of GPCRs in Xenopus oocytes has been widely used to determine the identity of signaling pathways activated by agonist stimulation (Gundersen et al., 1983; Takahashi et al., 1987). Activation of the phospholipase C (PLC) pathway is assayed by applying test compound in ND96 solution to oocytes previously injected with mRNA for the mammalian receptor and observing inward currents at a holding potential of −80 mV. The appearance of currents that reverse at −25 mV and display other properties of the Ca^++-activated Cl^− (chloride) channel is indicative of mammalian receptor-activation of PLC and release of IP3 and intracellular Ca^++.

human NPFF1 receptor = target: T2, human NPFF1 receptor (Homo sapiens, UniProt Q9GZQ6); experiment: [125I]D-Tyr-NPFF radioligand binding, HEK-293 cells expressing human NPFF1; conditions: Table 3
T2 construct: To obtain a full-length hNPFF1 construct in the correct orientation; expressed in transfected cells; host or cells: HEK-293 (transient)
T2 sequence (Q9GZQ6 whole entry): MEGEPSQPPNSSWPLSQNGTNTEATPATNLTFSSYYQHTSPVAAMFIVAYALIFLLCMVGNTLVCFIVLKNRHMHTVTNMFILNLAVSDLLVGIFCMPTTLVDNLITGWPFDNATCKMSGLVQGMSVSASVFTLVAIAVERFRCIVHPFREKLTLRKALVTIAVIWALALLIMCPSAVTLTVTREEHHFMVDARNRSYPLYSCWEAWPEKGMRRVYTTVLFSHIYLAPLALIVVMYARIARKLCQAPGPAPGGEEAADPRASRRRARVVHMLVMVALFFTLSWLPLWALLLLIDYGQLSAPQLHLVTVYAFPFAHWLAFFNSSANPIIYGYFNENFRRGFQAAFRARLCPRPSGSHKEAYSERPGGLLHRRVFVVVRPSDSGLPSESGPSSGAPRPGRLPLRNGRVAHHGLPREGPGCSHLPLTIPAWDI
Protocol: (§1) Transfected cells from culture flasks are scraped into 5 ml of 20 mM Tris-HCl, 5 mM EDTA, pH 7.5, and lysed by sonication. The cell lysates are centrifuged at 1000 rpm for 5 min. at 4° C., and the supernatant is centrifuged at 30,000×g for 20 min. at 4° C. The pellet is suspended in binding buffer (50 mM Tris-HCl, 60 mM NaCl, 1 mM MgCl, 33 μM EDTA, 33 μM EGTA at pH 7.4 supplemented with 0.2% BSA, 2 μg/ml aprotinin, and 20 μM bestatin). Optimal membrane suspension dilutions, defined as the protein concentration required to bind less than 10% of the added radioligand, are added to 96-well polpropylene microtiter plates containing ^3H-labeled compound, unlabeled compounds, and binding buffer to a final volume of 250 μl. In equilibrium saturation binding assays membrane preparations are incubated in the presence of increasing concentrations of [^3H]-labeled compound. The binding affinities of the different compounds are determined in equilibrium competition binding assays, using [^125I]-labeled compound in the presence of ten to twelve different concentrations of the displacing ligands. Competition assay: 50 pM radioligand, 10-12 points. Binding reaction mixtures are incubated for 2 hr at 25° C., and the reaction stopped by filtration through a double layer of GF filters treated with 0.1% polyethyleneimine, using a cell harvester. Wash buffer: 50 mM Tris-HCl, 0.1% BSA. Radioactivity may be measured by scintillation counting and data are analyzed by a computerized non-linear regression program. Non-specific binding is defined as the amount of radioactivity remaining after incubation of membrane protein in the presence of 1 μM final concentration […]. Protein concentration may be measured by the Bradford method using Bio-Rad Reagent, with bovine serum albumin as a standard.
(§2) Additional pharmacological evaluation was done using 293 human embryonic kidney cells (HEK-293 cells) transiently expressing the genes encoding the human NPFF1, NPFF2, and rat NPFF1 receptors, as well as Cos-7 cells expressing the rat NPFF2 receptors.

human NPFF2 receptor = target: T3, human NPFF2 receptor (Homo sapiens, UniProt Q9Y5X5); experiment: [125I]D-Tyr-NPFF radioligand binding, HEK-293 cells expressing human NPFF2; conditions: Table 3; HEK-293 cells; [125I]D-Tyr-NPFF
T3 construct: BO89, was determined to be a full length clone with no point mutations; expressed in transfected cells; host or cells: HEK-293 (transient)
T3 sequence (Q9Y5X5 103-522): as the sequence (Q9Y5X5 103-522) above
Protocol: as §1, §2

rat NPFF2 receptor [2] = target: T4, rat NPFF2 receptor (Rattus norvegicus, UniProt Q9EQD2); experiment: [125I]D-Tyr-NPFF radioligand binding, cloned rat NPFF2; conditions: Table 3; title HEK-293 cells (text: Cos-7); [125I]D-Tyr-NPFF
T4 construct: The full-length rat NPFF2 clone was amplified from rat spinal cord cDNA; expressed in transfected cells; host or cells: COS-7
T4 sequence (Q9EQD2 whole entry): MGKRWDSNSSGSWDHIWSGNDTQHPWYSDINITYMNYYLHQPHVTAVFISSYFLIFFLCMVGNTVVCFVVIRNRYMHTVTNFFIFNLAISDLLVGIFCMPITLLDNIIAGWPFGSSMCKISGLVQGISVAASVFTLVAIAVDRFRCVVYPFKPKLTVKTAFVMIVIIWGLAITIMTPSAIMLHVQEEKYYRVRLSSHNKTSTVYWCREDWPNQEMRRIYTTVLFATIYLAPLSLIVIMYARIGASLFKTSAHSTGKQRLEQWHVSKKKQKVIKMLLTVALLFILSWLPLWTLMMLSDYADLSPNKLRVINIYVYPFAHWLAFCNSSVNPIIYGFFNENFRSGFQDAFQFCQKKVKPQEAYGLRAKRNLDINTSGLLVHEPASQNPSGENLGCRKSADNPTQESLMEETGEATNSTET
Protocol: as §1, §2

rat NPFF2 receptor [3] = target: T4, rat NPFF2 receptor; experiment: Functional activity at cloned rat NPFF2 in COS-7 cells; assay type: cell-based
normotensive rats = experiment: Blood pressure in anesthetized normotensive rats, intravenous administration; assay type: in vivo, rat; conditions: 0.3 mg/kg, 1 minute before the agonist
Source text: Rats were anesthetized with urethane and PE50 cannulae were placed in the femoral artery and vein for blood pressure monitoring and drug administration, respectively.

anesthetized rats = experiment: Distension-induced rhythmic contraction (DIRC) model of the micturition reflex in anesthetized rats; assay type: in vivo, rat; conditions: 0.3 mg/kg, i.v.
Protocol: The effects of compounds on the micturition reflex were assessed in the “distension-induced rhythmic contraction” (DIRC) model in rats. This model of the micturition reflex has been described in previous publications (e.g. 72, 73).
Female Sprague Dawley rats weighing approximately 300 g were anesthetized with subcutaneous urethane (1.2 g/kg). The trachea was cannulated with PE240 tubing to provide a clear airway throughout the experiment. A midline abdominal incision was made and the left and right ureters were isolated. The ureters were ligated distally (to prevent escape of fluids from the bladder) and cannulated proximally with PE10 tubing. The incision was closed using 4-0 silk sutures, leaving the PE10 lines routed to the exterior for the elimination of urine. The bladder was canulated via the transurethral route using PE50 tubing inserted 2.5 cm beyond the urethral opening. This cannula was secured to the tail using tape and connected to a pressure transducer. To prevent leakage from the bladder, the cannula was tied tightly to the exterior urethral opening using 4-0 silk.
To initiate the micturition reflex, the bladder was first emptied by applying pressure to the lower abdomen, and then filled with normal saline in 100 μl increments (maximum=2 ml) until spontaneous bladder contractions occurred (typically 20-40 mmHg at a rate of one contraction every 2 to 3 minutes. Once a regular rhythm was established, vehicle (saline) or test compounds were administered intravenously to examine their effects on bladder activity. The effect of a compound which inhibited the micturition reflex was expressed as its “disappearance time”, defined as the time between successive bladder contractions in the presence of the test compound minus the time between contractions before compound administration.

rat NPFF1 receptor [4] = target: T5, rat NPFF1 receptor (Rattus norvegicus, UniProt Q9EP86); experiment: [125I]D-Tyr-NPFF radioligand binding, HEK-293 cells expressing rat NPFF1; parameters: expressed in transfected cells; conditions: Table 3
T5 sequence (Q9EP86 whole entry): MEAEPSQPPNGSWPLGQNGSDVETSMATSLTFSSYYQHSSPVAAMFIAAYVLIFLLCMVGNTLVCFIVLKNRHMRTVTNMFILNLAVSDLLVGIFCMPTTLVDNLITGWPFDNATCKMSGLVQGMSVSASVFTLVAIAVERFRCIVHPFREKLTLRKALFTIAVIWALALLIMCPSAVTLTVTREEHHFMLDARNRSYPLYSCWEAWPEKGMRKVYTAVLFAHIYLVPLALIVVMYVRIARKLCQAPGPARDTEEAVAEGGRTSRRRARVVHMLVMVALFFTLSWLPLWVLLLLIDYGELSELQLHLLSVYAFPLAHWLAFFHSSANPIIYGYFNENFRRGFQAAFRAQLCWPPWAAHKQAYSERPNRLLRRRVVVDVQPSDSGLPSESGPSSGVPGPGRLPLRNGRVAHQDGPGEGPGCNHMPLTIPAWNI
Protocol: as §1, §2

rat NPFF1 receptor [5] = target: T5, rat NPFF1 receptor; experiment: Functional activity at cloned rat NPFF1 in COS-7 cells; assay type: cell-based; parameters: expressed in transfected cells; host or cells: COS-7 (transient); conditions: COS-7 cells

CC(C)C[C@H](NC(=O)[C@H](N)Cc1ccc(O)cc1)C(=O)N(C)[C@@H](Cc1ccccc1)C(=O)N[C@@H](CCC(N)=O)C(=O)N1CCC[C@H]1C(=O)N[C@@H](CCC(N)=O)C(=O)N[C@@H](CCCNC(=N)N)C(=O)N[C@@H](Cc1ccccc1)C(N)=O [(D-Tyr^1-(NMe)Phe^3)NPFF] (H-[dY]L[NMeF]QPQRF-NH2; N-terminus assumed)
pKi for rat spinal cord membrane receptor binding, MEAN [1]: *9.724
Ki (NPFF receptors; spinal cord membranes, read-out: Ki, inhibition of [125I](1DMe)Y8Fa binding): 0.16 nM

neurokinin A
inward current response (NPFF2 (NPFF-like)): failed to activate; also recorded: no response

NC(N)=NCCC[C@@H](NC(=O)C(c1ccccc1)c1ccccc1)C(=O)NCc1ccc(O)cc1 [BIBP 3226]
pKi ± SEM, human NPFF1 (human NPFF1 receptor): 6.9 ± 0.04
pKi ± SEM, human NPFF2 (human NPFF2 receptor): 5.9 ± 0.04
pKi ± SEM, rat NPFF2 (rat NPFF2 receptor [2]): 5.8±0.02
EC50 (rat NPFF2 receptor [3]): 944 nM
Maximum Effect (% NPFF), rat NPFF2 (rat NPFF2 receptor [3]): 67 % NPFF
block of pressor response to fPP (normotensive rats): completely blocked
block of pressor response to pLeu,Pro-NPY (normotensive rats): completely blocked
reduction of pressor response to NPFF (normotensive rats): ~50%
block of inhibitory effect of fPP on micturition (anesthetized rats): not blocked
block of inhibitory response to NPFF on micturition (anesthetized rats): did not block
pKi ± SEM, rat NPFF1 (rat NPFF1 receptor [4]): 7.6±0.04
Maximum Effect (% NPFF), rat NPFF1 (rat NPFF1 receptor [5]): 0 % NPFF
EC50 (rat NPFF1 receptor [5]; read-out: EC50, rat NPFF1): > 10000 nM

NPY
inward current response (NPFF2 (NPFF-like)): failed to activate; also recorded: no response
inhibition of [125I](1DMe)Y8Fa binding (NPFF receptors): No inhibition

CN1CC[C@]23c4c5ccc(O)c4O[C@H]2[C@@H](O)C=C[C@H]3[C@H]1C5 [morphine]
inhibition of [125I](1DMe)Y8Fa binding (NPFF receptors): No inhibition
